Experimental data from patent US20230310442A1, “POLY HYDROXY OLIGOMER COATED DOLUTEGRAVIR AQUASOMES AND METHOD THEREOF” (priority 2020, published 2023).

Tests used:
[1] = tested on: herpes simplex virus (HSV) infected vero cells; experiment: In vitro MTT antiviral assay; type: cell-based; conditions: 0.01 to 100 μ/mL
[2] = Preformulation study: solubility of dolutegravir sodium in water; type: physicochemical; conditions: preformulation studies
Description: Preformulation studies of dolutegravir sodium were performed to know the physical appearance and organoleptic properties.

[3] = cited from earlier work
human plasma proteins = conditions: cited from earlier work
UGT1A1 = molecular target: T1, UGT1A1 (Homo sapiens, UniProt P22309); conditions: cited from earlier work
T1 sequence (P22309 26-533): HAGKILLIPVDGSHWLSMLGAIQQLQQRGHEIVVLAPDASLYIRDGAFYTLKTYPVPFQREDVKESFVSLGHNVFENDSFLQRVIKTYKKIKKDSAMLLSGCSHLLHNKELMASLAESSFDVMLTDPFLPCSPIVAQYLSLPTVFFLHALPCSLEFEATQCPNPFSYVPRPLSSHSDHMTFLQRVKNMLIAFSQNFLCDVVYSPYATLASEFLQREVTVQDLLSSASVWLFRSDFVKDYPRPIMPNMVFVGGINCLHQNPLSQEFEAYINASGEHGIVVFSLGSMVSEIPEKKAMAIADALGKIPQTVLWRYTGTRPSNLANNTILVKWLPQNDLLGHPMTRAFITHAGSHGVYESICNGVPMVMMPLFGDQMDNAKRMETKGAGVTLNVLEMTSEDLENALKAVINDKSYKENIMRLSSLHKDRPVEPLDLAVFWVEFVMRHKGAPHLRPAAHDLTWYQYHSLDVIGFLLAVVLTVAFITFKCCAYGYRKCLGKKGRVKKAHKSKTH

[4] = In vitro drug dissolution, USP Type II apparatus; type: physicochemical
Description: In vitro drug dissolution studies 01 In vitro dissolution studies of the pure dolutegravir (PD) and its aquasomal formulations (F1 to F6) were carried out using USP-Type II dissolution apparatus. 900 ml of pH 6.8 phosphate buffer was used as dissolution media and temperature was maintained at 37° C.±0.5° C. with paddle rotation speed at 50 rpm. Aliquots of 5 ml were withdrawn at various intervals and were replaced with same quantity of fresh dissolution medium to maintain the sink condition. Samples were filtered through wattman filter paper and analysed UV—Vis spectrophotometrically at 259.80 nm. The dissolution experiments were conducted in triplicate and the cumulative percentage of drug release was calculated. […] Dissolution efficiency (DE) values were calculated as per Khan^1 and T50 (time taken for 50% dissolution) values were recorded from the dissolution profiles.
A comparative in vitro drug release study was performed in pH 6.8 phosphate buffer for pure dolutegravir sodium (PD) and all designed formulations (F1-F6), the data was shown in Table 7. The dissolution experiments were conducted in triplicate. Dissolution efficiency (DE5) values were calculated as per Khan^1. T50 (time taken for 50% dissolution) values were recorded from the dissolution profiles.
The dissolution data of formulations PD and dolutegravir aquasomes were fitted into mathematical models such as zero order, first order and Hixson Crowell models kinetics and the plots were shown in Table No: 8. The release kinetics of pure drug (PD) and dolutegravir aquasomes follows zero order as well as Hixson Crowell model because the values of regression coefficient obtained for zero order release profiles are higher as compared to first order kinetics. […] The cube root dissolution rate constant (KH) of Hixson Crowell values of PD is 0.124 and optimized formulation F6 is 0.713. During dissolution, the radius of the particle, mass of the particle was changed. […]

[5] = cited from earlier work; remark: listed apart in the source

In the case of `C[C@@H]1CCO[C@H]2Cn3cc(C(=O)NCc4ccc(F)cc4F)c(=O)c(O)c3C(=O)N12` [PD, sodium (4R,12aS)-9-{[(2,4-difluorophenyl)methyl]carbamoyl}-4-methyl-6,8-dioxo-3,4,6,8,12,12a-hexahydro-2H-pyrido[1′, 2′:4,5]pyrazino[2,1-b][1,3]oxazin-7-olate], the IC50 [1] is given as 57.9 ± 4.6 µg/mL, the solubility [2] is given as 1.6 µg/mL and the “Solubility: soluble in water” value ([3]; at 25° C.) is given as 3500 µg/mL. For the same compound, the “Particle Size” value ([3]; drug profile) was 5 microns, the “protein bound to human plasma proteins” value (human plasma proteins) was greater than 98.9% and the “primarily metabolized by” value (UGT1A1) was “UGT1A1”. For the same compound, the “T50 (time taken for 50% dissolution)” value [4] was 38.5 h, the “% of Dolutegravir Sodium Release” value ([4]; 0 hr, pH 6.8 phosphate buffer) was 0% and the “% of Dolutegravir Sodium Release” value ([4]; 0.5 hr, pH 6.8 phosphate buffer) was 7.38 ± 0.12%. The “% of Dolutegravir Sodium Release” value ([4]; 1 hr, pH 6.8 phosphate buffer) was 13.45 ± 0.14%, the “% of Dolutegravir Sodium Release” value ([4]; 2 hr, pH 6.8 phosphate buffer) was 15.27 ± 0.12% and the “% of Dolutegravir Sodium Release” value ([4]; 3 hr, pH 6.8 phosphate buffer) was 15.79 ± 0.19%. For the same compound, the “% of Dolutegravir Sodium Release” value ([4]; 4 hr, pH 6.8 phosphate buffer) was 16.92 ± 0.12%, the “% of Dolutegravir Sodium Release” value ([4]; 5 hr, pH 6.8 phosphate buffer) was 17.82 ± 0.09% and the “% of Dolutegravir Sodium Release” value ([4]; 6 hr, pH 6.8 phosphate buffer) was 18.33 ± 0.10%. The “% of Dolutegravir Sodium Release” value ([4]; 7 hr, pH 6.8 phosphate buffer) was 20.13 ± 0.12%, the “% of Dolutegravir Sodium Release” value ([4]; 8 hr, pH 6.8 phosphate buffer) was 20.27 ± 0.43% and the “% of Dolutegravir Sodium Release” value ([4]; 9 hr, pH 6.8 phosphate buffer) was 22.27 ± 0.12%. The “% of Dolutegravir Sodium Release” value ([4]; 10 hr, pH 6.8 phosphate buffer) was 22.45 ± 0.14%, the “% of Dolutegravir Sodium Release” value ([4]; 11 hr, pH 6.8 phosphate buffer) was 25.23 ± 0.13% and the “% of Dolutegravir Sodium Release” value ([4]; 12 hr, pH 6.8 phosphate buffer) was 26.45 ± 0.22%. For the same compound, the “DE5 (dissolution efficiency)” value ([4]; at 5 h, pH 6.8 phosphate buffer) was 14.80%, the “Hixson Crowell (KH)” value ([4]; cube root dissolution rate constant) was 0.124 mg^1/3/hr and the “First order (K1)” value ([4]; dissolution rate constant) was 0.018 h⁻¹. For the same compound, the “Zero order (Ko)” value ([4]; dissolution rate constant) was 1.566 mg/h, the “Correlation Coefficient Values (r) First order” value ([4]; drug release kinetics fit) was 0.845 and the “Correlation Coefficient Values (r) Hixson Crowell” value ([4]; drug release kinetics fit) was 0.443. The “Correlation Coefficient Values (r) Zero order” value ([4]; drug release kinetics fit) was 0.812, the Cmax ([5]; absorption) was 7.97-14.70 μm and the tmax ([5]; absorption) was 0.5 to 2 h. The Clearance ([5]; in vivo) was 1 L/h, the Half-life ([5]; in vivo) was 14 h and the “drug eliminated from urine” value ([5]; in vivo) was 32%. The “drug eliminated through feces” value ([5]; in vivo) was 53%.
